Key:
[1] = target: T1, amyloid (aggregated Aβ1-42) injected into amygdaloid nucleus (Homo sapiens, UniProt P05067); experiment: Confirmation of imaging of amyloid in brain (autoradiogram of brain slice, Aβ1-42 injected rat); format: in vivo, male Wistar rat; conditions: tail vein, 11-15 MBq equivalent, brain removed 60 minutes after injection
T1 construct: Aβ1-42 (Wako) was dissolved in phosphate buffer (pH 7.4); purchased Wako
Protocol: (1) Aβ1-42 (Wako) was dissolved in phosphate buffer (pH 7.4) and shaken at 37° C. for 72 hours, to obtain a 1 mg/mL suspension of aggregated Aβ (hereinafter referred to as amyloid suspension in this Example).
(2) 2.5 μL (corresponding to 25 μg) of the amyloid suspension was injected into an amygdaloid nucleus on one side of a male Wistar rat (7-week old). As a control, 2.5 μL of a phosphate buffered physiological saline solution (pH 7.4) was injected into an amygdaloid nucleus on the other side of the rat. The rats were examined 1 day after the injection of the amyloid suspension and the phosphate buffered physiological saline solution (pH 7.4).
This solution was injected under thiopental anesthesia into the rat through the tail vein (dosage: 0.5 mL, dosed radioactivity: 11-15 MBq equivalent).
(4) Brain was removed 60 minutes after the injection to prepare a brain slice of 10 μm in thickness with a microtome (type: CM3050S, manufactured by LEICA). The brain slice was exposed to an imaging plate for 20 hours, and then image analysis was carried out by use of a Bio-imaging Analyzer (type: BAS-2500; manufactured by FUJIFILM Corporation).

[2] = Transferability into brain and clearance (2); format: in vivo, male Wistar rats; conditions: rats, intravenous injection, Table 1-10
Protocol: 0.05 mL each of these solutions was injected under thiopental anesthesia into the tail vein of respective Wistar rats (7-week old). The rats were sacrificed by bleeding from abdominal artery, and brains were removed and subjected to measurement of mass of brains and further subjected to measurement of radioactivity (hereinafter referred to as A in this Example) with a single channel analyzer (detector type: SP-20 manufactured by OHYO KOKEN KOGYO Co., Ltd.) 2, 5, 30 and 60 minutes after the injection. Also, radioactivity (hereinafter referred to as B in this Example) of the rest of the whole body was measured in the same manner as above. Using these measurement results, radioactive distribution per unit weight of brain (% ID/g) at the respective time points were calculated in accordance with the following formula (1-7).
Three animals were used for experiment at the respective time points.

[3] = Radioactive distribution ratio in each organ; format: in vivo, SD rat
Protocol: 0.2 mL each of the prepared sample solution was administered under non-thiopental anesthesia into the tail vein of the above rat. The rats were sacrificed by bleeding from abdominal artery, and each organ shown in Table 3 was removed 5, 30, 60 and 180 minutes after the administration. […] Also, radioactivity of the whole body of the rat after removal of the organs (hereinafter referred to as rest of the whole body) was measured. Using these measurement results, radioactive distribution per unit weight of each organ (% ID/g) at the respective time points was calculated in accordance with the following formula (3).
Three animals were used for the experiment at the respective time points.
R^T: Radioactivity of target organ (cpm) R^S: Sum of radioactivity of all the organs (cpm) R^R: Radioactivity of the rest of the whole body (cpm) M^T: Mass of target organ (g)

[4] = SD rat, tail vein, 5 min. after administration
[5] = SD rat, tail vein, 30 min. after administration
[6] = SD rat, tail vein, 60 min. after administration
[7] = SD rat, tail vein, 180 min. after administration

T1 sequence (P05067 672-713): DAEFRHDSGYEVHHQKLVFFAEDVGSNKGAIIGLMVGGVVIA

FCCOc1ccc(-c2cn3cc([123I])ccc3n2)cc1 [Compound I-9, 2-[4′-(2″-fluoroethoxy)phenyl]-6-[^123I]iodoimidazo[1,2-a]pyridine]
accumulation of radioactivity in amygdaloid nucleus on the amyloid-injected side (autoradiogram) [1]: marked accumulation of radioactivity
Radioactive distribution per unit weight in brain, After 2 min. ([2]; 2 min.): 0.72 % ID/g
Radioactive distribution per unit weight in brain, After 5 min. ([2]; 5 min.): 0.49 % ID/g
Radioactive distribution per unit weight in brain, After 30 min. ([2]; 30 min.): 0.07 % ID/g
Radioactive distribution per unit weight in brain, After 60 min. ([2]; 60 min.): 0.02 % ID/g
excretion / clearance to the outside of the body ([3]; SD rat, tail vein): biliary-excreted rapidly after the administration
Radioactive distribution per unit weight, Adrenal gland, Average [3, 4]: 3.914 % ID/g
Radioactive distribution per unit weight, Adrenal gland, Average [3, 5]: 0.457 % ID/g
Radioactive distribution per unit weight, Adrenal gland, Average [3, 6]: 0.260 % ID/g
Radioactive distribution per unit weight, Adrenal gland, Average [3, 7]: 0.017 % ID/g
Radioactive distribution per unit weight, Blood, Average [3, 4]: 0.370 % ID/g
Radioactive distribution per unit weight, Blood, Average [3, 5]: 0.142 % ID/g
Radioactive distribution per unit weight, Blood, Average [3, 6]: 0.108 % ID/g
Radioactive distribution per unit weight, Blood, Average [3, 7]: 0.074 % ID/g
Radioactive distribution per unit weight, Bone, Average [3, 4]: 0.187 % ID/g
Radioactive distribution per unit weight, Bone, Average [3, 5]: 0.067 % ID/g
Radioactive distribution per unit weight, Bone, Average [3, 6]: 0.045 % ID/g
Radioactive distribution per unit weight, Bone, Average [3, 7]: 0.032 % ID/g
Radioactive distribution per unit weight, Brain, Average [3, 4]: 0.701 % ID/g
Radioactive distribution per unit weight, Brain, Average [3, 5]: 0.067 % ID/g
Radioactive distribution per unit weight, Brain, Average [3, 6]: 0.026 % ID/g
Radioactive distribution per unit weight, Brain, Average [3, 7]: 0.007 % ID/g
Radioactive distribution per unit weight, Heart, Average [3, 4]: 0.551 % ID/g
Radioactive distribution per unit weight, Heart, Average [3, 5]: 0.111 % ID/g
Radioactive distribution per unit weight, Heart, Average [3, 6]: 0.059 % ID/g
Radioactive distribution per unit weight, Heart, Average [3, 7]: 0.030 % ID/g
Radioactive distribution per unit weight, Kidney, Average [3, 4]: 1.114 % ID/g
Radioactive distribution per unit weight, Kidney, Average [3, 5]: 0.560 % ID/g
Radioactive distribution per unit weight, Kidney, Average [3, 6]: 0.302 % ID/g
Radioactive distribution per unit weight, Kidney, Average [3, 7]: 0.108 % ID/g
Radioactive distribution per unit weight, Large intestine, Average [3, 4]: 0.106 % ID/g
Radioactive distribution per unit weight, Large intestine, Average [3, 5]: 0.070 % ID/g
Radioactive distribution per unit weight, Large intestine, Average [3, 6]: 0.074 % ID/g
Radioactive distribution per unit weight, Large intestine, Average [3, 7]: 5.241 % ID/g
Radioactive distribution per unit weight, Liver, Average [3, 4]: 2.399 % ID/g
Radioactive distribution per unit weight, Liver, Average [3, 5]: 0.337 % ID/g
Radioactive distribution per unit weight, Liver, Average [3, 6]: 0.178 % ID/g
Radioactive distribution per unit weight, Liver, Average [3, 7]: 0.067 % ID/g
Radioactive distribution per unit weight, Lung, Average [3, 4]: 0.647 % ID/g
Radioactive distribution per unit weight, Lung, Average [3, 5]: 0.192 % ID/g
Radioactive distribution per unit weight, Lung, Average [3, 6]: 0.130 % ID/g
Radioactive distribution per unit weight, Lung, Average [3, 7]: 0.074 % ID/g
Radioactive distribution per unit weight, Marrow, Average [3, 4]: 0.815 % ID/g
Radioactive distribution per unit weight, Marrow, Average [3, 5]: 0.075 % ID/g
Radioactive distribution per unit weight, Marrow, Average [3, 6]: 0.000 % ID/g
Radioactive distribution per unit weight, Marrow, Average [3, 7]: 0.000 % ID/g
Radioactive distribution per unit weight, Muscle, Average [3, 4]: 0.239 % ID/g
Radioactive distribution per unit weight, Muscle, Average [3, 5]: 0.052 % ID/g
Radioactive distribution per unit weight, Muscle, Average [3, 6]: 0.031 % ID/g
Radioactive distribution per unit weight, Muscle, Average [3, 7]: 0.016 % ID/g
Radioactive distribution per unit weight, Pancreas, Average [3, 4]: 0.650 % ID/g
Radioactive distribution per unit weight, Pancreas, Average [3, 5]: 0.236 % ID/g
Radioactive distribution per unit weight, Pancreas, Average [3, 6]: 0.115 % ID/g
Radioactive distribution per unit weight, Pancreas, Average [3, 7]: 0.073 % ID/g
Radioactive distribution per unit weight, Small intestine, Average [3, 4]: 1.259 % ID/g
Radioactive distribution per unit weight, Small intestine, Average [3, 5]: 6.598 % ID/g
Radioactive distribution per unit weight, Small intestine, Average [3, 6]: 8.235 % ID/g
Radioactive distribution per unit weight, Small intestine, Average [3, 7]: 2.657 % ID/g
Radioactive distribution per unit weight, Spleen, Average [3, 4]: 0.442 % ID/g
Radioactive distribution per unit weight, Spleen, Average [3, 5]: 0.092 % ID/g
Radioactive distribution per unit weight, Spleen, Average [3, 6]: 0.069 % ID/g
Radioactive distribution per unit weight, Spleen, Average [3, 7]: 0.037 % ID/g
Radioactive distribution per unit weight, Stomach, Average [3, 4]: 0.287 % ID/g
Radioactive distribution per unit weight, Stomach, Average [3, 5]: 0.619 % ID/g
Radioactive distribution per unit weight, Stomach, Average [3, 6]: 0.672 % ID/g
Radioactive distribution per unit weight, Stomach, Average [3, 7]: 0.812 % ID/g
ratio (% ID/g at 5 minutes after the administration)/(% ID/g at 180 minutes after the administration) ([3]; bone): 6
ratio (% ID/g at 5 minutes after the administration)/(% ID/g at 180 minutes after the administration) ([3]; brain): 94
ratio (% ID/g at 5 minutes after the administration)/(% ID/g at 180 minutes after the administration) ([3]; heart): 18
ratio (% ID/g at 5 minutes after the administration)/(% ID/g at 180 minutes after the administration) ([3]; lung): 9
ratio (% ID/g at 5 minutes after the administration)/(% ID/g at 180 minutes after the administration) ([3]; pancreas): 9

Reference: patent publication US20100267952A1, “USE OF NOVEL COMPOUND HAVING AFFINITY FOR AMYLOID, AND PROCESS FOR PRODUCTION OF THE SAME” (NIHON MEDI-PHYSICS CO., LTD., priority 2007, published 2010)
